In patent publication US20250332173A1, “COMPOUNDS AND METHODS FOR MODULATING NUCLEIC ACID SPLICING” (REMIX THERAPEUTICS INC., priority 2021, published 2025):

What was measured:
[1] = system: MYB; assay: HiBiT protein abundance assay, MYB HiBiT K562 cell line; format: cell-based, human; details: HiBiT K562 cell line, 24 hours, top dose 10 μM; read-out: Effect on protein abundance, MYB (IC50 category)
Summary of the method: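 Endogenous targets in K562 knock-in lines carried a HiBiT tag and were treated for 24 h at 37 °C with 10-point 3-fold dilutions (top 10 μM final, DMSO ≤0.25%). Abundance was read as lytic Nano-Glo HiBiT luminescence. IC50 came from a four-parameter logistic fit of normalized response.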

[2] = system: Target C; assay: RT-qPCR splicing assay panel, Target C canonical junction (CJ) mRNA; format: cell-based, human; details: Homo sapiens; Table 5 panel; canonical junction qPCR; compound concentration having 50% response in CJ decrease; read-out: Target C IC50 (decrease in CJ mRNA levels)
Summary of the method: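 A673 cells (DMEM/10% FBS) or K562 cells (IMDM/10% FBS) were treated 24 h at 37° C. with 11-point 3-fold dilutions (top 10 uM, ≤0.25% DMSO). Canonical-junction mRNA was quantified in lysates by RT-qPCR, normalized to GAPDH, GUSB or PPIA.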

Compound | IC50 [1] [µM] | IC50 [2] [µM]
COc1cc2c(=O)n(C3CCNCC3)ccc2cc1-c1cc(C)c2nc(C)cn2n1 [Compound 449, 6-{2,8-dimethylimidazo[1,2-b]pyridazin-6-yl}-7-methoxy-2-(piperidin-4-yl)isoquinolin-1-one] | > 10 | > 10
Cc1cn2cc(-c3ccc4c(=O)n(C5CCNCC5)cc(C)c4c3)cc(F)c2n1 [Compound 440, 6-{8-fluoro-2-methylimidazo[1,2-a]pyridin-6-yl}-4-methyl-2-(piperidin-4-yl)isoquinolin-1-one] | < 0.1 | 0.1 to 1
Cc1cn2cc(-c3cc(F)c4c(=O)n([C@H]5CCNC5)ccc4c3)cc(F)c2n1 (single isomer, unassigned) [Compound 396] | 0.1 to 1 | > 10
Cc1cn2cc(-c3cc(F)c4c(=O)n(C5CCOC5)cnc4c3)cc(C#N)c2n1 (stereo not drawn) [Compound 366, 6-[5-fluoro-4-oxo-3-(oxolan-3-yl)quinazolin-7-yl]-2-methylimidazo[1,2-a]pyridine-8-carbonitrile] | 1 to 10 | 1 to 10
Cc1cn2cc(-c3cc(F)c4c(=O)n(C5CCNC6(CC6)C5)ccc4c3)c(O)c(C)c2n1 (stereo not drawn) [Compound 421, 2-{4-azaspiro[2.5]octan-7-yl}-8-fluoro-6-{7-hydroxy-2,8-dimethylimidazo[1,2-a]pyridin-6-yl}isoquinolin-1-one] | > 10 | > 10
Cc1cn2cc(-c3ccc4c(=O)n(C5CCNC5)cc(C)c4c3)cc(F)c2n1 (stereo not drawn) [Compound 441, 6-{8-fluoro-2-methylimidazo[1,2-a]pyridin-6-yl}-4-methyl-2-(pyrrolidin-3-yl)isoquinolin-1-one] | 1 to 10 | > 10
